Structures are written as SMILES. ≈ marks a conversion by molar mass, not a printed value.

In one test the test system is Bacillus subtilis. As to the kind of experiment: Antibacterial activity against Bacillus subtilis after 24 hrs by microdilution method. In kind it is functional.
Test [1] relates to Staphylococcus haemolyticus. The experiment in a line: Antibacterial activity against fluoroquinolne-resistant Staphylococcus haemolyticus 16568 after 24 hrs by microdilution method. In kind it is functional. The conditions noted are these: Staphylococcus haemolyticus, 16568, 24 h.
The test system of test [2] is Staphylococcus aureus. As to the kind of experiment: Antibacterial activity against methicillin-resistant Staphylococcus aureus 4591 clinical isolates after 24 hrs by microdilution method. In kind it is functional. Conditions: Staphylococcus aureus, 4591, 24 h. A general note: Dilution methods test growth across graded concentrations, often in twofold steps.
The next test relates to Burkholderia multivorans. As to the kind of experiment: Antibacterial activity against Burkholderia multivorans after 24 hrs by microdilution method. In kind it is functional.
In test [3] the test system is Pseudomonas aeruginosa. The experiment in a line: Antibacterial activity against Pseudomonas aeruginosa 16575 after 24 hrs by microdilution method. In kind it is functional. Conditions: Pseudomonas aeruginosa, 16575, 24 h.
For test [4], the system named is Staphylococcus aureus. The experiment in a line: Antibacterial activity against Staphylococcus aureus CCM 4223 after 24 hrs by microdilution method. In kind it is functional. Conditions: CCM 4223, 24 h.
Test [5] deals with Staphylococcus epidermidis. The experiment in a line: Antibacterial activity against Staphylococcus epidermidis 8700/B after 24 hrs by microdilution method. In kind it is functional.
Test [6] deals with Escherichia coli. As to the kind of experiment: Antibacterial activity against Escherichia coli 16702 after 24 hrs by microdilution method. In kind it is functional. Conditions: Escherichia coli, 16702, 24 h.
A further test concerns Salmonella enteritidis. The experiment in a line: Antibacterial activity against Salmonella enteritidis S2-25 after 24 hrs by microdilution method. In kind it is functional, Salmonella enterica subsp. enterica serovar Enteritidis. The conditions noted are these: Salmonella enterica, S2-25, 24 h.
Test [7] concerns Escherichia coli. As to the kind of experiment: Antibacterial activity against Escherichia coli CCM 3954 after 24 hrs by microdilution method. In kind it is functional. Conditions: CCM 3954, 24 h.
In another test the test system is Acinetobacter baumannii. As to the kind of experiment: Antibacterial activity against Acinetobacter baumannii A3-08 after 24 hrs by microdilution method. In kind it is functional. The conditions noted are these: A3-08, 24 h.
For the next test, the system named is Enterococcus faecium. As to the kind of experiment: Antibacterial activity against vancomycin-resistant Enterococcus faecium 419/ana clinical isolates after 24 hrs by microdilution method. In kind it is functional.
In test [8] the test system is Pseudomonas aeruginosa. The experiment in a line: Antibacterial activity against Pseudomonas aeruginosa CCM 3955 after 24 hrs by microdilution method. Conditions: CCM 3955, 24 h. In kind it is functional.
Test [9] has as its system Stenotrophomonas maltophilia. The experiment in a line: Antibacterial activity against Stenotrophomonas maltophilia S2-23 after 24 hrs by microdilution method. Conditions: S2-23, 24 h. In kind it is functional.
The next test deals with Enterococcus faecalis. The experiment in a line: Antibacterial activity against Enterococcus faecalis CCM 4224 after 24 hrs by microdilution method. In kind it is functional. The conditions noted are these: CCM 4224, 24 h.
The next test has as its system Streptococcus agalactiae. As to the kind of experiment: Antibacterial activity against Streptococcus agalactiae after 24 hrs by microdilution method. In kind it is functional.

Broadly, the MIC is the least concentration at which growth counts as inhibited. With `CCCCCCCCCCCCCCOP(=O)(CCN1CCC(N)C1)OC[C@H]1O[C@@H](n2ccc(=O)[nH]c2=O)[C@H](O)[C@@H]1O` (stereo not given in full), the MIC was determined as 1.56 µg/mL (≈ 2.53 µM) against Bacillus subtilis; 6.25 µg/mL (≈ 10.1 µM) in test [1]; 25 µg/mL (≈ 40.5 µM) in the test on Staphylococcus aureus [2]; 50 µg/mL (≈ 81.1 µM) with Burkholderia multivorans; 3.13 µg/mL (≈ 5.08 µM) with Pseudomonas aeruginosa [3]; 12.5 µg/mL (≈ 20.3 µM) in the test with Staphylococcus aureus [4]. Also, the MIC was determined as 3.13 µg/mL (≈ 5.08 µM) in test [5]; 3.13 µg/mL (≈ 5.08 µM) in the test with Escherichia coli [6]; 6.25 µg/mL (≈ 10.1 µM) in the test with Salmonella enteritidis; 3.13 µg/mL (≈ 5.08 µM) in the test on Escherichia coli [7]; 6.25 µg/mL (≈ 10.1 µM) with Acinetobacter baumannii; 50 µg/mL (≈ 81.1 µM) against Enterococcus faecium. For the same compound, the MIC turned out to be 3.13 µg/mL (≈ 5.08 µM) in the test on Pseudomonas aeruginosa [8], 12.5 µg/mL (≈ 20.3 µM) in [9], 6.25 µg/mL (≈ 10.1 µM) in the test with Enterococcus faecalis and 3.13 µg/mL (≈ 5.08 µM) in the test with Streptococcus agalactiae.

For `CCCCCCCCCCCCCCCOP(=O)(CCN1CCC(N)C1)OC[C@H]1O[C@@H](n2ccc(=O)[nH]c2=O)[C@H](O)[C@@H]1O` (stereo not given in full), the minimal inhibitory concentration (MIC) against Bacillus subtilis stood at 3.13 µg/mL (≈ 4.96 µM); in test [1] it was 6.25 µg/mL (≈ 9.91 µM); with Staphylococcus aureus [2] it was 6.25 µg/mL (≈ 9.91 µM); with Burkholderia multivorans it was 50 µg/mL (≈ 79.3 µM); against Pseudomonas aeruginosa [3] it was 12.5 µg/mL (≈ 19.8 µM); with Staphylococcus aureus [4], 6.25 µg/mL (≈ 9.91 µM). For the same compound, the MIC worked out at 6.25 µg/mL (≈ 9.91 µM) in [5]; 6.25 µg/mL (≈ 9.91 µM) with Escherichia coli [6]; 6.25 µg/mL (≈ 9.91 µM) against Salmonella enteritidis; 6.25 µg/mL (≈ 9.91 µM) against Escherichia coli [7]; 6.25 µg/mL (≈ 9.91 µM) in the test with Acinetobacter baumannii; 25 µg/mL (≈ 39.6 µM) against Enterococcus faecium. The minimal inhibitory concentration (MIC) against Pseudomonas aeruginosa [8] was found to be 12.5 µg/mL (≈ 19.8 µM); in test [9], 6.25 µg/mL (≈ 9.91 µM); against Enterococcus faecalis it was 6.25 µg/mL (≈ 9.91 µM); in the test on Streptococcus agalactiae, 3.13 µg/mL (≈ 4.96 µM).

With `CCCCCCCCCCCCCCCCOP(=O)(CCN(CCN)CCN)OC[C@H]1O[C@@H](n2ccc(=O)[nH]c2=O)[C@H](O)[C@@H]1O` (stereo not given in full), the MIC with Bacillus subtilis stood at 1.56 µg/mL (≈ 2.36 µM); in test [1], 3.13 µg/mL (≈ 4.73 µM); in the test with Staphylococcus aureus [2], 6.25 µg/mL (≈ 9.44 µM); with Burkholderia multivorans, 25 µg/mL (≈ 37.8 µM); in the test with Pseudomonas aeruginosa [3] it was 3.13 µg/mL (≈ 4.73 µM); with Staphylococcus aureus [4], 6.25 µg/mL (≈ 9.44 µM). Moreover, the MIC in test [5] was found to be 3.13 µg/mL (≈ 4.73 µM); in the test with Escherichia coli [6] it was 3.13 µg/mL (≈ 4.73 µM); against Salmonella enteritidis, 3.13 µg/mL (≈ 4.73 µM); in the test with Escherichia coli [7], 3.13 µg/mL (≈ 4.73 µM); against Acinetobacter baumannii, 6.25 µg/mL (≈ 9.44 µM); in the test on Enterococcus faecium it was 50 µg/mL (≈ 75.5 µM). Further, the MIC turned out to be 3.13 µg/mL (≈ 4.73 µM) against Pseudomonas aeruginosa [8], 1.56 µg/mL (≈ 2.36 µM) in [9], 12.5 µg/mL (≈ 18.9 µM) against Enterococcus faecalis and 1.56 µg/mL (≈ 2.36 µM) with Streptococcus agalactiae.

Regarding `CCCCCCCCCCCCCOP(=O)(CCN(CCCN)CCCN)OC[C@H]1O[C@@H](n2ccc(=O)[nH]c2=O)[C@H](O)[C@@H]1O` (stereo not given in full), the MIC with Bacillus subtilis amounted to 3.13 µg/mL (≈ 4.83 µM); in test [1], 6.25 µg/mL (≈ 9.65 µM); against Staphylococcus aureus [2] it was 25 µg/mL (≈ 38.6 µM); against Burkholderia multivorans it was 50 µg/mL (≈ 77.2 µM); with Pseudomonas aeruginosa [3], 25 µg/mL (≈ 38.6 µM); against Staphylococcus aureus [4] it was 12.5 µg/mL (≈ 19.3 µM). The MIC in [5] is 12.5 µg/mL (≈ 19.3 µM); against Escherichia coli [6], 50 µg/mL (≈ 77.2 µM); in the test on Salmonella enteritidis it was 50 µg/mL (≈ 77.2 µM); with Escherichia coli [7], 25 µg/mL (≈ 38.6 µM); against Acinetobacter baumannii, 50 µg/mL (≈ 77.2 µM); in the test on Enterococcus faecium, 100 µg/mL (≈ 154 µM). The MIC amounted to 3.13 µg/mL (≈ 4.83 µM) against Pseudomonas aeruginosa [8], 50 µg/mL (≈ 77.2 µM) in [9], 50 µg/mL (≈ 77.2 µM) with Enterococcus faecalis and 6.25 µg/mL (≈ 9.65 µM) against Streptococcus agalactiae.

Consider `CCCCCCCCCCCCCCCCOP(=O)(CCN(CCCNC(=N)N)CCCNC(=N)N)OC[C@H]1O[C@@H](n2ccc(=O)[nH]c2=O)[C@H](O)[C@@H]1O` (stereo not given in full), for which the minimal inhibitory concentration (MIC) worked out at 0.78 µg/mL (≈ 1.01 µM) in the test on Bacillus subtilis; 1.56 µg/mL (≈ 2.02 µM) in test [1]; 3.13 µg/mL (≈ 4.04 µM) against Staphylococcus aureus [2]; 50 µg/mL (≈ 64.6 µM) in the test with Burkholderia multivorans; 3.13 µg/mL (≈ 4.04 µM) with Pseudomonas aeruginosa [3]; 3.13 µg/mL (≈ 4.04 µM) against Staphylococcus aureus [4]. The MIC in test [5] was 1.56 µg/mL (≈ 2.02 µM); against Escherichia coli [6], 1.56 µg/mL (≈ 2.02 µM); with Salmonella enteritidis it was 1.56 µg/mL (≈ 2.02 µM); in the test with Escherichia coli [7] it was 1.56 µg/mL (≈ 2.02 µM); against Acinetobacter baumannii, 3.13 µg/mL (≈ 4.04 µM); against Enterococcus faecium, 25 µg/mL (≈ 32.3 µM). Further, the MIC with Pseudomonas aeruginosa [8] worked out at 3.13 µg/mL (≈ 4.04 µM); in test [9] it was 1.56 µg/mL (≈ 2.02 µM); in the test with Enterococcus faecalis it was 6.25 µg/mL (≈ 8.08 µM); in the test with Streptococcus agalactiae it was 1.56 µg/mL (≈ 2.02 µM).

The record behind these values is ChEMBL document CHEMBL4038308, “Lipophosphonoxins II: Design, Synthesis, and Properties of Novel Broad Spectrum Antibacterial Agents” (J Med Chem, 2017).
